According to patent publication US10588950B2, “Compositions and methods for counteracting Factor Xa inhibition” (Pfizer Inc., priority 2013, dated 2020):

What was measured:
[1] = test system: whole blood clot formation; assay: Whole blood rotational thromboelastometry (ROTEM); format: cell-based, human
Procedure: Whole blood thromboelastometry was used to assess the ability of the FXa^I16L variant to reverse the effects of the direct FXa inhibitors in whole blood. In this system, blood is drawn from healthy volunteers. The first 2 mL of blood were discarded and the subsequent 5 mL of blood was collected into a vacutainer (BID, Franklin Lakes, N.J.). Corn trypsin inhibitor and sodium citrate were in the collection tube, prior to collection of the blood sample, to achieve a final concentration of 0.105 M citrate and 25 μg/mL corn trypsin inhibitor (Haematologic Technologies, Burlington, Vt.) in the blood. Two sets of reactions were analyzed for each donor. The initial reaction initiated 5 minutes post blood collection. The second reaction initiated 1 hour post initiation of first reaction (1 hour 5 minutes after collection).
Blood was analyzed using Thromboelastometry ROTEM® delta (Tem International GmbH, Munich, Germany). For the reaction: (1) 6 μL of vehicle, protein, and/or inhibitor were added to the empty cup, (2) 20 μl of 0.2 M CaCl2 (final concentration 11.6 mM), and (3) 20 μl of Innovin (final concentration in reaction 1:10,000; source of tissue factor) were added to the cup. Whole blood collected as described above was added to the reaction (300 up and recordings were allowed to proceed for approximately 30-60 minutes. The data collected was analyzed using the manufacture's software. (Rotem Gamma Software Version 1.1.1).

[2] = biological target: FXa^I16L (Homo sapiens, UniProt P00742, I235L); assay: Inhibition of free FXa^I16L peptidyl substrate (SpecXa) hydrolysis by rivaroxaban; format: biochemical; settings: free enzyme
Sequence of FXa^I16L (P00742 41-179): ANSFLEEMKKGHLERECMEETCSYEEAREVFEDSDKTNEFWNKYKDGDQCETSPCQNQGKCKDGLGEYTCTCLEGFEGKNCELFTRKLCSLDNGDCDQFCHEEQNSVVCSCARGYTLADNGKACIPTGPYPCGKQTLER
Sequence of FXa^I16L (P00742 235-488 I235L): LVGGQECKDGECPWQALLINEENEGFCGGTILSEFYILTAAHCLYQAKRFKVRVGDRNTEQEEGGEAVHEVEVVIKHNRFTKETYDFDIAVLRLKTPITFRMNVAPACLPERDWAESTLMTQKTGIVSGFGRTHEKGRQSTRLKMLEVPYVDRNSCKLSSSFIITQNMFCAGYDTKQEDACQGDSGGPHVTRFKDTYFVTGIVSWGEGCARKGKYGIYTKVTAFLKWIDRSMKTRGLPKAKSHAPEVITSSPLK

[3] = test system: thrombin generation in normal human plasma; assay: Thrombin generation assay (TGA) in normal human plasma, Example 2; format: biochemical; settings: 500 nM rivaroxaban versus plasma without rivaroxaban
Procedure: The thrombin generation assay (TGA) was used to assess whether the zymogen-like FXa variants can reverse the effects of direct FXa inhibitors in a more physiologic environment. The TGA measures thrombin production in plasma over time following the initiation of coagulation and was performed as previously described (See Bunce et al., (2011) Blood 117, 290-298, incorporated by reference herein in their entirety). […] Thrombin generation was initiated with 2.0 pM tissue factor/4 uM phospholipid as well as CaCl2 and a thrombin fluorogenic substrate.

[4] = test system: clotting time of whole blood; assay: ROTEM of whole blood from mice administered rivaroxaban and FXa^I16L in vivo; parameters: species or system C57BL/6 mice; settings: 1 mg/kg rivaroxaban via tail vein, buffer only about 2 min
Procedure: Mice were then prepared to expose the jugular vein and the vena cava. Approximately 10 mill later FXa^I16L (1 or 2 mg/kg) was infused by direct injection into the jugular vein. Five minutes post injection blood was collected via the vena cava into citrate and corn trypsin inhibitor. Collected blood was then analyzed by ROTEM using dilute tissue factor (Innovin, 1:42,000 dilution).

[5] = test system: thrombin generation in normal human plasma; assay: Thrombin generation assay using calibrated automated thrombography (CAT), Example 4; format: biochemical
Procedure: Normal human plasma was obtained from George King Biomedical (Overland Park, Kans.). […] Immediately preceding reaction initiation, 10 μL of vehicle or FXa^I16L was added to plasma at final concentrations ranging from 0.03125 nM to 0.5 nM FXa^I16L, given a 120 μL total reaction volume. Reactions were initiated by addition of 20 μL FluCa buffer containing calcium chloride and fluorogenic substrate. Fluorescence of plasma reactions was read at 37° C. at 20 second intervals on a Fluoroskan Ascent fluorometer and compared to those of reference thrombin calibrator reactions to determine thrombin concentrations. The intensity of the fluorescence signal (FU) was continuously monitored at 37° C. using the CAT. Thrombin generation curves (nM thrombin vs. time) were analyzed to extract lag time, peak height, time to peak, and the area under the curve representing the endogenous thrombin potential (ETP) using the Thromboscope software (Thrombinoscope BV version).

[6] = test system: blood loss following a tail cut; settings: mouse, in vivo, 50 mg/kg
Procedure: Thirty minutes later, mice were anesthetized with isoflurane and placed on a heated platform, and the body temperature of the mice was maintained at 37° C. prior to the tail cut. The tails were immersed in 50 mL pre-warmed phosphate buffered saline (PBS) at 37° C. for 2 minutes. A 3 mm tail cut was made and blood was collected into PBS for a 10 minute period. A quantitative assessment of the amount of bleeding was determined by hemoglobin content of the blood collected into PBS. Tubes were centrifuged to collect erythrocytes, resuspended in 5 mL lysis buffer (8.3 g/L NH4Cl, 1.0 g/L KHCO3, and 0.037 g/L EDTA), and the absorbance of the sample was measured at 575 nm. The absorbance values were converted to total blood loss (μL) using a standard curve.
Mice were then anesthetized with isoflurane and placed on a heated platform, and the body temperature of the mice was maintained at 37° C. prior to the tail cut. The tails were immersed in 50 mLs pre-warmed phosphate buffered saline (PBS) at 37° C. for 2 minutes. A 3 mm tail cut was made and blood was collected into PBS for a 10 minute period and the assessment of the amount of bleeding was determined by hemoglobin content as described.

[7] = test system: clot formation at site of vascular injury; assay: Laser-induced injury of mouse cremaster muscle, intravital microscopy; format: in vivo; settings: 1 mg/kg rivaroxaban
Text: Using standard techniques, the cremaster muscle of mice was exposed and visualized using intravital microscopy. A vascular injury in the muscle was then induced using a laser. After injury, clot formation was visualized using different fluorescently labeled antibodies that specifically recognize fibrin and platelets. Clotting is indicated by the presence of fluorescent signal from both types of antibodies.

[8] = high doses (supratherapeutic concentrations)
[9] = low doses (therapeutic concentrations)

Compound	whole blood clot formation, inhibitor alone [1, 8]	whole blood clot formation, inhibitor alone [1, 9]	reduced affinity to FXa^I16L versus wild-type FXa [2] [fold]	thrombin generation profile of plasma [3]	clot time of whole blood (ROTEM) [4]	thrombin generation in normal human plasma ([5]; in vitro rivaroxaban treatment 5-200 nM)	ETP ([5]; rivaroxaban alone)	lag time ([5]; rivaroxaban alone)	peak thrombin ([5]; rivaroxaban alone)	blood loss following the tail transection [6]	accumulation of platelets at the injury site [7]	signs of fibrin at the injury site [7]
COc1ccc(-n2nc(C(N)=O)c3c2C(=O)N(c2ccc(N4CCCCC4=O)cc2)CC3)cc1 [apixaban]	almost completely eliminated	partially eliminated										
O=C(NC[C@H]1CN(c2ccc(N3CCOCC3=O)cc2)C(=O)O1)c1ccc(Cl)s1 [rivaroxaban]	almost completely eliminated	partially eliminated	~15	substantially reduced	Approximately 10 min	dose dependent inhibition	decrease	increase	decrease	increase	delayed	eliminated
